Measurements reported in article PMC7719768, “Glycogen Phosphorylase: A Drug Target of Amino Alcohols in Echinococcus granulosus, Predicted by a Computer-Aided Method” (Frontiers in Microbiology, 2020).

How the values were obtained:
[1] = target: T1, Rabbit muscle Gp (recombinant rabbit Gp) (Oryctolagus cuniculus, UniProt P00489); experiment: glycogen degradation coupled to phosphoglucomutase and glucose-6-phosphate dehydrogenase, NADPH at […] nm; assay type: biochemical; conditions: read-out: IC50/LC50 (μM) / Gp / Rabbit muscle
T1 construct: gene PYGM; called recombinant rabbit Gp in the methods
T1 sequence (P00489 2-843): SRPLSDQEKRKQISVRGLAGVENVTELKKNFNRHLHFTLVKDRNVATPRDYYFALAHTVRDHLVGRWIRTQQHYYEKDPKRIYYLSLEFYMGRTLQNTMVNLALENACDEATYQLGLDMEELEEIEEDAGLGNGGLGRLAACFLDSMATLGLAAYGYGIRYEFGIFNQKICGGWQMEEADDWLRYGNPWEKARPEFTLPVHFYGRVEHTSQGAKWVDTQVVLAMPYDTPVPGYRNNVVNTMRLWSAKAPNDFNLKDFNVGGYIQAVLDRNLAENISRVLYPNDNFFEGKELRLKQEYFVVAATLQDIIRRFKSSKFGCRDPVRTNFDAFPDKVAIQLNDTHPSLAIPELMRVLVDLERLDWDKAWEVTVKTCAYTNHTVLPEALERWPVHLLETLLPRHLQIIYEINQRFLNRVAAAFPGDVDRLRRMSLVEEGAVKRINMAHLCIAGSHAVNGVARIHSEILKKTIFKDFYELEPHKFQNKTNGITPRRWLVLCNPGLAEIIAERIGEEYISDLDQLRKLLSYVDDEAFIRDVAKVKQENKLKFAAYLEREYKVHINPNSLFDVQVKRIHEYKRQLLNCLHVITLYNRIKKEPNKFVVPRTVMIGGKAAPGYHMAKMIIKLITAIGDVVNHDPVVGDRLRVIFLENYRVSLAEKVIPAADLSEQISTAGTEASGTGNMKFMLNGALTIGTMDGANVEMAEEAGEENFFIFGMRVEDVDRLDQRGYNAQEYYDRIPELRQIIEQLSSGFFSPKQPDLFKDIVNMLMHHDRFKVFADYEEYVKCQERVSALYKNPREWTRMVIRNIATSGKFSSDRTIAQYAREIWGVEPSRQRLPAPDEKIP

[2] = target: T2, E. granulosus PSC Gp (EgGps: EgGp1 and EgGp2); experiment: as above; assay type: biochemical, Echinococcus granulosus; conditions: protoscolex homogenate; 2 mg/ml glycogen, 1 mM AMP, 5 mM MgCl2, Tris-HCl, 25 °C; 2 min pre-incubation; read-out: IC50/LC50 (μM) / Gp / E. granulosus PSC
T2 construct: native enzyme in protoscolex homogenate, not purified; band at 96 kD; MN562583 = EgGp1, MN562584 = EgGp2; EgrG_000501500.1 is printed for Gp without saying which gene

SMILES	IC50 [1] [µM]	IC50 [2] [µM]
OC(c1cc(C(F)(F)F)nc2c(C(F)(F)F)cccc12)C1CCCCN1 (stereo not shown) [MEF, mefloquine]	> 438	128
C[C@H]1[C@H](C)CC[C@]2(C(=O)O)CC[C@]3(C)C(=CC[C@@H]4[C@@]5(C)CC[C@H](O)C(C)(C)[C@@H]5CC[C@]43C)[C@H]12 [UA, ursolic acid]	5.47	> 438
